From PubChem BioAssay (NCI)
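Dose response: 5 concentrations. Exposure: 48 h. Format: 96-well plates. Endpoint: linear interpolation; highest concentration if not reached. The concentration for full growth arrest is given as TGI.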

Experiments:
Test in all cases: growth of human tumour cells (NCI), 48 h
[1] = test system: CAKI-1 renal
[2] = test system: EKVX NSCLC
[3] = test system: DU-145 prostate
[4] = test system: NCI-H460 lung
[5] = test system: HL-60(TB) leukemia
[6] = test system: A498 renal
[7] = test system: HOP-62 NSCLC
[8] = test system: MDA-MB-231 breast
[9] = test system: HOP-92 NSCLC
[10] = test system: SN12C renal
[11] = test system: U251 CNS

Compound | TGI [1] | TGI [2] | TGI [3] | TGI [4] | TGI [5] | TGI [6] | TGI [7] | TGI [8] | TGI [9] | TGI [10] | TGI [11]
Cc1nc2c(=O)n3c4c(cccc4c2o1)CCC3 | > 100 µM | > 100 µM | > 100 µM | > 100 µM | > 100 µM | > 100 µM | > 100 µM | > 100 µM | > 100 µM | > 100 µM | > 100 µM
C=C(C)C12CC3CC/C(=N/O)C(C1)C3(N1CCOCC1)C/C2=N/O (stereo not drawn) | > 100 µM | > 100 µM | > 100 µM | > 100 µM | > 100 µM | > 100 µM | > 100 µM | > 100 µM | > 100 µM | > 100 µM | > 100 µM
COc1ccc(N2C(=O)CC(c3c[nH]c4ncccc34)C2=O)cc1 (stereo not drawn) | 37.2 µM | > 75.6 µM | > 100 µM | > 100 µM | > 37.4 µM | > 100 µM | > 100 µM | 40.3 µM | 36 µM | 35.2 µM | > 100 µM
C[C@]12CC[C@H](O)CC1=CC[C@@H]1C2CC[C@]2(C)Nc3c(cnn3-c3ccc(F)cc3)CC12 (stereo partly drawn) | > 100 µM | > 100 µM | > 100 µM | > 100 µM | > 100 µM | > 47.6 µM | 61.1 µM | > 100 µM | 63.6 µM | > 100 µM | > 100 µM
OC(C/C=N/Nc1ccccc1)(C(F)(F)Cl)C(F)(F)Cl | > 10 µM | > 10 µM | > 10 µM | > 10 µM | > 10 µM | > 10 µM | > 10 µM | > 10 µM | > 10 µM | > 10 µM | > 10 µM
C=CCn1c(-c2ccc(-c3cs/c(=N\N=O)n3CC=C)cc2)cs/c1=N\N=O | > 100 µM | > 100 µM | > 100 µM | > 100 µM | > 100 µM | > 100 µM | > 100 µM | 69.3 µM | > 100 µM | > 100 µM | > 100 µM
S=C1N=C(Cl)/C(=C\c2ccccc2)N1 | > 100 µM | > 100 µM | > 100 µM | > 100 µM | > 100 µM | > 100 µM | > 100 µM | > 100 µM | > 100 µM | > 100 µM | > 100 µM
CCOC(=O)/C(C#N)=C/c1ccc2c(c1)CC1(C2)Cc2cc(CC)c(C(C)O)cc2C1 (stereo not drawn) | > 100 µM | > 100 µM | 56.1 µM | 77.1 µM | 8.51 µM | > 90.4 µM | 36 µM | 27.1 µM | 47.9 µM | 32.4 µM | 20.3 µM
CC(C)(C)OC(=O)N(CCCCNCc1ccc2ccccc2c1)CCCNCc1ccc2ccccc2c1 | 2.45 µM | 3.05 µM | 3.1 µM | 2.18 µM | 0.507 µM | 3.47 µM | 3.87 µM | 2.28 µM | 3.18 µM | 3.32 µM | 3.49 µM
COP(=O)(OC)/C(=C\c1cn(C(c2ccccc2)(c2ccccc2)c2ccccc2)cn1)NC(C)=O | > 100 µM | > 100 µM | > 100 µM | > 100 µM | > 100 µM | > 100 µM | > 100 µM | > 100 µM | > 100 µM | > 100 µM | > 100 µM
CC1(C)[C@H]2Cc3cc(-c4cc5c(cn4)[C@@H]4C[C@H]([C@@H]5[C@@H]5c6cc(-c7cc8c(cn7)[C@@H]7C[C@H](C8)C7(C)C)ncc6[C@@H]6C[C@H]5C6(C)C)C4(C)C)ncc3[C@@H]1C2 | > 100 µM | > 100 µM | > 100 µM | > 100 µM | > 100 µM | > 100 µM | > 100 µM | > 100 µM | > 100 µM | > 100 µM | > 100 µM
Cc1cccc2c(=O)c3cccc([C@@H](C)C(=O)O)c3oc12 | > 100 µM | > 100 µM | > 100 µM | > 100 µM | > 100 µM | > 100 µM | > 100 µM | > 100 µM | > 100 µM | > 100 µM | > 100 µM
COc1ccc(CCNC(=O)[C@H]2CCCC[C@@H]2CCO)cc1OC | > 100 µM | > 100 µM | > 100 µM | > 100 µM | > 100 µM | > 100 µM | > 100 µM | > 100 µM | > 100 µM | > 100 µM | > 100 µM
COc1cc(C(=O)Oc2c(C#N)sc3c2c(=O)n(-c2ccccc2)c(=S)n3-c2ccccc2)cc(OC)c1OC | 84.3 µM | 42.2 µM | 42.3 µM | 68.1 µM | 41.3 µM | 19.6 µM | 48.3 µM | 77.9 µM | 64.4 µM | 32.3 µM | 45.9 µM
CCOP(=O)(OCC)/C(C#N)=C/c1c[nH]c2ccccc12 | > 100 µM | > 100 µM | > 100 µM | > 100 µM | > 100 µM | > 100 µM | > 100 µM | > 100 µM | > 100 µM | > 100 µM | > 100 µM
CC(C)C(NC(=O)C(Cc1ccccc1)NC(=O)[C@H]1CCC[C@H]1NC(=O)C(N)Cc1ccc(O)cc1)C(N)=O (stereo partly drawn) | > 100 µM | > 100 µM | > 100 µM | > 100 µM | > 100 µM | > 100 µM | > 100 µM | > 100 µM | > 100 µM | > 100 µM | > 100 µM
CC(=O)O[C@@H](C1C[C@@H](C)[C@H]2[C@@](O)(O1)[C@H](O)[C@@]1(C)C3=CC[C@H]4C(C)(C)[C@@H](OC5OCC(O)C(O)C5O)CC[C@@]45C[C@@]35CC[C@]21C)C(C)(C)O (stereo partly drawn) | > 100 µM | 61.6 µM | 70 µM | 40.6 µM | 15.3 µM | 63 µM | 70.7 µM | 37.2 µM | 60.5 µM | 54.8 µM | 36 µM
O=c1[nH]n(Cc2ccccc2Cl)c2ccccc12 | > 100 µM | > 100 µM | > 100 µM | > 100 µM | > 100 µM | > 100 µM | > 100 µM | > 100 µM | > 100 µM | > 100 µM | > 100 µM
